From patent publication US7368576B2, “Dipeptidyl peptidase IV inhibitors and their uses as anti-cancer agents” (Probiodrug AG, priority 2001, dated 2008) come the findings set out here.

The target in this assay is T1, recombinant human prolyl oligopeptidase (POP) (Homo sapiens, UniProt P48147).
T1 construct: made in house; host or cells: E. coli
T1 sequence (P48147 1-710): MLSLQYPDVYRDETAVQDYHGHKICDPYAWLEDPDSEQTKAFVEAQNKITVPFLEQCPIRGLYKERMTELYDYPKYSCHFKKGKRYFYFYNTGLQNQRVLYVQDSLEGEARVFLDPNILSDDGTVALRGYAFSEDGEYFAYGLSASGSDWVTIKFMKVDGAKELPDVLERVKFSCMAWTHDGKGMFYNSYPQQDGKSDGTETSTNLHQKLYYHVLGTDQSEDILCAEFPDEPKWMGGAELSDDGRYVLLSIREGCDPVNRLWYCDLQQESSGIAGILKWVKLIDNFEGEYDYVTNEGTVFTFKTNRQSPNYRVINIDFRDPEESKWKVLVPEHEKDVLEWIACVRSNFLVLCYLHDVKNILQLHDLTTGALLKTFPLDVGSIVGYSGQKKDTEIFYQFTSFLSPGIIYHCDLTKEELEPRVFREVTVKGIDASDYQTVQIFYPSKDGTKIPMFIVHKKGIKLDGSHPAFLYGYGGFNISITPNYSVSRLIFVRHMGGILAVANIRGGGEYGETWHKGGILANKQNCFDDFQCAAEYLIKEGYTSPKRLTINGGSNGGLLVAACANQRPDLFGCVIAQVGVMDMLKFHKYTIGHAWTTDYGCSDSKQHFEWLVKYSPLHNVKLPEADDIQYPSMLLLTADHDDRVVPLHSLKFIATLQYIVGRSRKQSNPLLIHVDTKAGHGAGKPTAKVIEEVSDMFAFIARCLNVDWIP
Put plainly: Cross reacting enzymes: prolyl oligopeptidase. The assay is classed as biochemical. Conditions: concentration range 1*10^−4 M-5*10^−8 M. As for the experimental part:
Substrates are peptides with a molecular weight up to 3000 Da. The enzyme used was a recombinant human prolyl oligopeptidase. Recombinant expression was performed in E. coli under standard conditions as described elsewhere in the state of the art.
100 μl glutaminyl pyrrolidine or glutaminyl thiazolidine in an concentration range of 1*10^−4 M-5*10^−8 M were admixed with 100 μl μl buffer solution (40 mM HEPES, pH7.6, 0.015% Brij, 1 mM DTT) and 20 μl POP solution. The assay mixture was pre-incubated at 30° C. for 15 min. After pre-incubation, 50 μl glycylprolylprolyl-4-nitroaniline solution (0.29 mM) was added and measurement of yellow color development due to 4-nitroaniline release was performed at 30° C. and λ=405 nm for 10 min using a plate reader (sunrise, Tecan, Crailsheim, Germany). The IC50-values were calculated using Graphit 4.0.15 (Erithacus Software, Ltd., UK).

SMILES strings stand for the structures.

As for `NC(=O)CCC(N)C(=O)N1CCCC1` (stereo not shown) [Gln-Pyrr, glutaminyl pyrrolidine], the “inhibition of POP activity” value is “No inhibition”.
